From patent US12077503B2, “Substituted cyclic amides and their use as herbicides” (FMC CORPORATION, priority 2015, dated 2024)

How the values were obtained:
Format in all cases: in vivo
[1] = system: pigweed (Amaranthus retroflexus); experiment: Test A preemergence; settings: Amaranthus retroflexus, pre-emergence, 240 h, 0 to 100 scale (0 no effect, 100 complete control), read-out: Plant response rating, Pigweed
[2] = system: giant foxtail (Setaria faberii); experiment: Test A preemergence; settings: Setaria faberi, pre-emergence, 240 h, 0 to 100 scale (0 no effect, 100 complete control), read-out: Plant response rating, Foxtail, Giant
Outline: (§1)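 Seeds sprayed preemergence with a directed soil spray, or plants at 2 to 10 cm height and one- to two-leaf stage sprayed postemergence, with test chemicals in a non-phytotoxic solvent mixture containing surfactant, in loam soil–sand blend. Injury rated visually against untreated controls after about 10 d in greenhouse, 0 (no effect) to 100 (complete control).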

[3] = system: ryegrass, Italian (Italian ryegrass, Lolium multiflorum); experiment: Test A preemergence; settings: Lolium multiflorum, pre-emergence, 240 h, 0 to 100 scale (0 no effect, 100 complete control), read-out: Plant response rating, Ryegrass, Italian
Outline: as §1

[4] = system: ragweed (common ragweed, Ambrosia elatior); experiment: Test A preemergence; settings: Ambrosia artemisiifolia, pre-emergence, 240 h, 0 to 100 scale (0 no effect, 100 complete control), read-out: Plant response rating, Ragweed
Outline: as §1

Kochia (Kochia scoparia) [5] = experiment: Test A preemergence; settings: Bassia scoparia, pre-emergence, 240 h, 500 g ai/ha, preemergence; 0 to 100 scale (0 no effect, 100 complete control); read-out: Plant response rating, Kochia
Outline: as §1

corn (Zea mays) = experiment: Test A postemergence; settings: Zea mays, post-emergence, 240 h, Postemergence
Outline: as §1

[6] = system: blackgrass (Alopecurus myosuroides); experiment: Test A postemergence; settings: Alopecurus myosuroides, post-emergence, 240 h, Postemergence
Outline: as §1

[7] = system: pigweed (Amaranthus retroflexus); experiment: Test A postemergence; settings: Amaranthus retroflexus, post-emergence, 240 h, Postemergence
Outline: as §1

[8] = system: Galium (catchweed bedstraw, Galium aparine); experiment: Test A postemergence; settings: Galium, post-emergence, 240 h, Postemergence
Outline: as §1

[9] = system: giant foxtail (Setaria faberii); experiment: Test A postemergence; settings: Setaria faberi, post-emergence, 240 h, Postemergence
Outline: as §1

[10] = system: ryegrass, Italian (Italian ryegrass, Lolium multiflorum); experiment: Test A postemergence; settings: Lolium multiflorum, post-emergence, 240 h, Postemergence
Outline: as §1

[11] = system: ragweed (common ragweed, Ambrosia elatior); experiment: Test A postemergence; settings: Ambrosia artemisiifolia, post-emergence, 240 h, Postemergence
Outline: as §1

Kochia (Kochia scoparia) [12] = experiment: Test A postemergence; settings: Bassia scoparia, post-emergence, 240 h, Postemergence
Outline: as §1

[13] = system: wheat (Triticum aestivum); experiment: Test A postemergence; settings: Triticum aestivum, post-emergence, 240 h, Postemergence
Outline: as §1

COc1cc(OC)cc([C@H]2CN(C)C(=O)[C@@H]2C(=O)Nc2cccc(F)c2F)c1 [Compound 1370]
pest or weed control at 500 g/ha ([1]; 500 g ai/ha, preemergence): 20%
pest or weed control at 125 g/ha ([1]; Preemergence, 125 g ai/ha): 0%
pest or weed control at 500 g/ha ([2]; 500 g ai/ha, preemergence): 90%
pest or weed control at 125 g/ha ([2]; Preemergence, 125 g ai/ha): 90%
pest or weed control at 500 g/ha ([3]; 500 g ai/ha, preemergence): 90%
pest or weed control at 125 g/ha ([3]; Preemergence, 125 g ai/ha): 80%
pest or weed control at 500 g/ha ([4]; 500 g ai/ha, preemergence): 80%
pest or weed control at 125 g/ha ([4]; Preemergence, 125 g ai/ha): 40%
pest or weed control at 500 g/ha (Kochia (Kochia scoparia) [5]): 80%
plant injury at 125 g/ha (corn (Zea mays); 125 g ai/ha, visual rating about 10 d after treatment, read-out: Corn plant response rating (0 to 100 scale)): 30%
Corn plant response rating (crop injury, 0 = no effect, 100 = complete kill) at 500 g/ha (corn (Zea mays); 500 g ai/ha, visual injury, 0 to 100 scale (0 no effect, 100 complete control), approx. 10 d): 80%
pest or weed control at 125 g/ha ([6]; 125 g ai/ha, visual rating about 10 d after treatment, read-out: Blackgrass plant response rating (0 to 100 scale)): 50%
pest or weed control at 500 g/ha ([6]; 500 g ai/ha, visual injury, 0 to 100 scale (0 no effect, 100 complete control), approx. 10 d, read-out: Plant response rating, Blackgrass): 80%
pest or weed control at 125 g/ha ([7]; 125 g ai/ha, visual rating about 10 d after treatment, read-out: Pigweed plant response rating (0 to 100 scale)): 0%
pest or weed control at 500 g/ha ([7]; 500 g ai/ha, visual injury, 0 to 100 scale (0 no effect, 100 complete control), approx. 10 d, read-out: Plant response rating, Pigweed): 30%
pest or weed control at 125 g/ha ([8]; 125 g ai/ha, visual rating about 10 d after treatment, read-out: Galium plant response rating (0 to 100 scale)): 40%
pest or weed control at 500 g/ha ([8]; 500 g ai/ha, visual injury, 0 to 100 scale (0 no effect, 100 complete control), approx. 10 d, read-out: Plant response rating, Galium): 50%
pest or weed control at 125 g/ha ([9]; 125 g ai/ha, visual rating about 10 d after treatment, read-out: Foxtail, Giant plant response rating (0 to 100 scale)): 90%
pest or weed control at 500 g/ha ([9]; 500 g ai/ha, visual injury, 0 to 100 scale (0 no effect, 100 complete control), approx. 10 d, read-out: Plant response rating, Foxtail, Giant): 90%
pest or weed control at 125 g/ha ([10]; 125 g ai/ha, visual rating about 10 d after treatment, read-out: Ryegrass, Italian plant response rating (0 to 100 scale)): 40%
pest or weed control at 500 g/ha ([10]; 500 g ai/ha, visual injury, 0 to 100 scale (0 no effect, 100 complete control), approx. 10 d, read-out: Plant response rating, Ryegrass, Italian): 70%
pest or weed control at 125 g/ha ([11]; 125 g ai/ha, visual rating about 10 d after treatment, read-out: Ragweed plant response rating (0 to 100 scale)): 0%
pest or weed control at 500 g/ha ([11]; 500 g ai/ha, visual injury, 0 to 100 scale (0 no effect, 100 complete control), approx. 10 d, read-out: Plant response rating, Ragweed): 30%
pest or weed control at 125 g/ha (Kochia (Kochia scoparia) [12]; 125 g ai/ha, visual rating about 10 d after treatment, read-out: Kochia plant response rating (0 to 100 scale)): 50%
pest or weed control at 500 g/ha (Kochia (Kochia scoparia) [12]; 500 g ai/ha, visual injury, 0 to 100 scale (0 no effect, 100 complete control), approx. 10 d, read-out: Plant response rating, Kochia): 50%
plant injury at 125 g/ha ([13]; 125 g ai/ha, visual rating about 10 d after treatment, read-out: Wheat plant response rating (0 to 100 scale)): 40%
plant injury at 500 g/ha ([13]; 500 g ai/ha, visual injury, 0 to 100 scale (0 no effect, 100 complete control), approx. 10 d, read-out: Plant response rating, Wheat): 70%
